From US20220306728A1 (priority 2019, published 2022)
Where two headings read alike, the source gives them in different places.

Columns and labels:
Test in all cases: microbe, parasite or virus in culture
H3N2 and H1N1 strains = format: cell-based, influenza A virus
H1N1 virus = format: cell-based; conditions: Influenza A virus, H1N1, MDCK
H3N2 virus = format: cell-based; conditions: Influenza A virus, H3N2, MDCK

`COC(=O)OCOc1c2n(ccc1=O)N([C@@H]1c3ccccc3SCc3c1ccc(F)c3F)[C@@H]1COCCN1C2=O` [baloxavir marboxil, reference compound] showed an IC50 (H3N2 and H1N1 strains; read-out: IC50) of 2.3 to 4.9 nM.

`CCOC(=O)C1=C[C@@H](OC(CC)CC)[C@H](NC(C)=O)[C@@H](N)C1` [oseltamivir] was tested, and the IC50 (H1N1 virus) was 9.1 nM and the IC50 (H3N2 virus) was 7 nM.

For `CC(=O)N[C@H]1[C@H]([C@H](O)[C@H](O)CO)OC(C(=O)O)=C[C@@H]1N=C(N)N` [zanamivir, reference compound], the IC50 (H3N2 and H1N1 strains; Influenza A virus, MDCK) was 10.7 to 13.7 nM.
